Pest or weed control data for 38 compounds are collected here from patent publication US8586505B2 (SDS Biotech K. K., priority 2009, dated 2013).

Holding throughout (format): in vivo
Experiment [1] deals with Pseudoperonospora cubensis. In words: Test of examining control effect on Pseudoperonospora cubensis (potted cucumber plants). The settings on record: 96 h, 10% wettable powder adjusted to 125 ppm, 15 ml/pot sprayed on potted cucumber plants one day before spray inoculation, assessed after 1 day wet chamber and 3 days greenhouse, read-out: Determination of control effect (preventive value) on Pseudoperonospora cubensis. The procedure:
(§1) Calculation of Preventive Value: Preventive value={(untreated lesion area rate−treated lesion area rate)/untreated lesion area rate}×100
(§2) Using the thus calculated preventive value, the control effect of each compound was determined in accordance with the following standards.
(§3) High control effect: 100%≧preventive value≧60%
(§4) Low control effect: 60%>preventive value≧0%
Using a spray gun, an agent solution prepared by adjusting a 10% wettable powder of each sample compound to 125 ppm (hereinafter referred to as a “sample agent solution”) was sprayed to potted cucumber plants (variety: Sagamihanjiro, 2.5 leave stage) in a concentration of 15 ml/pot. One day after the spraying, a conidial suspension of Pseudoperonospora cubensis (conidial concentration: 1.0×10^4 cells/ml) was applied to the plants by spray inoculation. After completion of the inoculation, the plants were left at 21° C. under wet chamber conditions for 1 day, and were then left in a greenhouse for 3 days, so that they were fully infected with the aforementioned disease. Thereafter, the disease level on each leaf was compared with that on an untreated leaf, and the control effect of each compound was determined in the same manner as in Example 3(1).

The subject of experiment [2] is Sphaerotheca fuliginea. In words: Test of examining control effect on Sphaerotheca fuliginea (potted cucumber plants). The settings on record: Podosphaera fuliginea, 336 h; 10% wettable powder adjusted to 125 ppm, 15 ml/pot sprayed on potted cucumber plants one day before spray inoculation; assessed after 14 days in greenhouse; read-out: Determination of control effect (preventive value) on Sphaerotheca fuliginea. The protocol:
as §1, §2, §3, §4
Using a spray gun, an agent solution prepared by adjusting a 10% wettable powder of each sample compound to 125 ppm (hereinafter referred to as a “sample agent solution”) was sprayed to potted cucumber plants (variety: Sagamihanjiro, 2nd leave stage) in a concentration of 15 ml/pot. One day after the spraying, a conidial suspension of Sphaerotheca fuliginea (conidial concentration: 1.0×10^5 cells/ml) was applied to the plants by spray inoculation. The plants were left in a greenhouse for 14 days, so that they were fully infected with the aforementioned disease. Thereafter, the disease level on each leaf was compared with that on an untreated leaf, and the control effect of each compound was determined in the same manner as in Example 3(1).

Experiment [3] relates to Phytophthora infestans. In words: whole plant or invertebrate. The settings on record: in Solanum lycopersicum, 96 h, read-out: Determination of control effect (preventive value).

Consider `COc1nc(C#CCCNc2ncnc3ccccc23)cs1` [compound 212], for which the pest or weed control at 125 µg/mL in experiment [1] and in experiment [2] was 60 to 100% throughout. Further, the pest or weed control at 125 ppm in experiment [3] fell in the range of 60 to 100%.

Turning to `COCc1ccccc1C#CCCNc1ncnc2c(Cl)cccc12` [compound 311], the pest or weed control at 125 µg/mL in experiment [1] and in experiment [2] was 60 to 100% each time. The pest or weed control at 125 ppm in experiment [3] was in the range of 60 to 100%.

In the case of `C(#Cc1ccc2c(c1)CCO2)CCNc1ncnc2ccccc12` [compound 157], the pest or weed control at 125 µg/mL in experiment [1] and in experiment [2] was 60 to 100% each time. In addition, in experiment [3], the pest or weed control at 125 ppm is 0 to 60%.

As to `CC(CC#Cc1ccc(Cl)cc1C(F)(F)F)Nc1ncnc2c(Cl)cccc12` (stereo not drawn) [compound 349], the pest or weed control at 125 µg/mL in experiment [1] and in experiment [2] was 60 to 100% each time. For the same compound, in experiment [3], the pest or weed control at 125 ppm is 0 to 60%.

On to `FC(F)OCc1ccccc1C#CCCNc1ncnc2ccccc12` [compound 134], for which the pest or weed control at 125 µg/mL in experiment [1] and in experiment [2] was 60 to 100% in each case. Further, in experiment [3], the pest or weed control at 125 ppm lay within 60 to 100%.

As for `CC(CC#Cc1ccccc1S(C)(=O)=O)Nc1ncnc2ccccc12` (stereo not drawn) [compound 290], the pest or weed control at 125 µg/mL in experiment [1] and in experiment [2] was 60 to 100% each time. The pest or weed control at 125 ppm in experiment [3] lay in the range of 60 to 100%.

For `COCc1ccc(C#CCCNc2ncnc3ccccc23)cc1` [compound 136], the pest or weed control at 125 µg/mL in experiment [1] and in experiment [2] was 60 to 100% throughout. Further, in experiment [3], the pest or weed control at 125 ppm lay within 0 to 60%.

`CCCC(CC#Cc1ccccc1)Nc1ncnc2sccc12` (stereo not drawn) [compound 268]: the pest or weed control at 125 µg/mL in experiment [1] and in experiment [2] was 60 to 100% throughout. The pest or weed control at 125 ppm in experiment [3] was 0 to 60%.

For the compound `COCc1ccccc1C#CCCNc1ncnc2ccc(SC)cc12` [compound 332], the results for the pest or weed control at 125 µg/mL in experiment [1] and in experiment [2] were 60 to 100% and 0 to 60%, respectively. In experiment [3], the pest or weed control at 125 ppm lay within 0 to 60%.

Consider `N#Cc1ccccc1C#CCCNc1ncnc2ccccc12` [compound 102], for which the pest or weed control at 125 µg/mL in experiment [1] and in experiment [2] was 60 to 100% each time. Also, the pest or weed control at 125 ppm in experiment [3] is 60 to 100%.

`COc1cc(C#CCCNc2ncnc3ccccc23)ccn1` [compound 199]: the pest or weed control at 125 µg/mL in experiment [1] and in experiment [2] was 60 to 100% in each case. Moreover, the pest or weed control at 125 ppm in experiment [3] is 60 to 100%.

As to `C(#Cc1ccccc1)CCNc1ncnc2[nH]ccc12` [compound 379], the pest or weed control at 125 µg/mL in experiment [1] lay in the range of 0 to 60%; in experiment [2] it was 60 to 100%. The pest or weed control at 125 ppm in experiment [3] is 0 to 60%.

For the compound `COCc1ccccc1C#CCCNc1ncnc(C)c1Cl` [compound 362], the pest or weed control at 125 µg/mL in experiment [1] and in experiment [2] was 60 to 100% throughout. Besides, the pest or weed control at 125 ppm in experiment [3] fell in the range of 60 to 100%.

With `COCc1ccccc1C#CCCNc1ncnc2cc(Br)ccc12` [compound 320], the pest or weed control at 125 µg/mL in experiment [1] and in experiment [2] was 60 to 100% each time. For the same compound, in experiment [3], the pest or weed control at 125 ppm fell in the range of 0 to 60%.

Regarding `Cc1ncnc(NC(C)CC#Cc2ccc(Cl)cc2C(F)(F)F)c1Br` (stereo not drawn) [compound 387], the pest or weed control at 125 µg/mL in experiment [1] and in experiment [2] was 60 to 100% throughout. Also, in experiment [3], the pest or weed control at 125 ppm lay in the range of 0 to 60%.

On to `COCc1ccccc1C#CCCNc1ncnc2ccc(F)cc12` [compound 317], for which the pest or weed control at 125 µg/mL in experiment [1] and in experiment [2] was 60 to 100% in each case. Further, in experiment [3], the pest or weed control at 125 ppm lay in the range of 60 to 100%.

For the compound `COC(C)c1ccccc1C#CCCNc1ncnc2ccccc12` (stereo not drawn) [compound 137], the pest or weed control at 125 µg/mL in experiment [1] and in experiment [2] was 60 to 100% throughout. For the same compound, the pest or weed control at 125 ppm in experiment [3] lay in the range of 0 to 60%.

Regarding `COCc1ccccc1C#CCCNc1ncnc2ccc(C#N)cc12` [compound 330], the pest or weed control at 125 µg/mL lay within 60 to 100% in experiment [1] and 0 to 60% in experiment [2]. Besides, the pest or weed control at 125 ppm in experiment [3] was in the range of 60 to 100%.

Turning to `CC(CC#Cc1ccc(Cl)c(C(F)(F)F)c1)Nc1ncnc2sccc12` (stereo not drawn) [compound 254], the pest or weed control at 125 µg/mL in experiment [1] was 60 to 100%; in experiment [2], 0 to 60%. Moreover, the pest or weed control at 125 ppm in experiment [3] lay within 0 to 60%.

In the case of `C#CCC(Nc1ncnc2ccccc12)c1ccccc1` (stereo not drawn) [compound 300, 4-[(1-Phenyl-3-butynyl)amino]quinazoline], the pest or weed control at 125 µg/mL in experiment [1] and in experiment [2] was 60 to 100% throughout. Besides, the pest or weed control at 125 ppm in experiment [3] lay in the range of 0 to 60%.

For the compound `CN(C)S(=O)(=O)c1ccccc1C#CCCNc1ncnc2ccccc12` [compound 161], the pest or weed control at 125 µg/mL was 60 to 100% in experiment [1] and 0 to 60% in experiment [2]. For the same compound, the pest or weed control at 125 ppm in experiment [3] fell in the range of 60 to 100%.

Turning to `FC(F)(F)c1ccccc1C#CCCNc1ncnc2ccc(Cl)cc12` [compound 309], the pest or weed control at 125 µg/mL in experiment [1] and in experiment [2] was 60 to 100% throughout. The pest or weed control at 125 ppm in experiment [3] was in the range of 0 to 60%.

For `CC(CC#Cc1ccc(Cl)cc1)Nc1ncnc2ccccc12` (stereo not drawn) [compound 273], the pest or weed control at 125 µg/mL in experiment [1] and in experiment [2] was 60 to 100% throughout. The pest or weed control at 125 ppm in experiment [3] lay in the range of 60 to 100%.

In the case of `Cc1ncnc(NC(C)CC#Cc2ccc(Cl)cc2C(F)(F)F)c1I` (stereo not drawn) [compound 386], the pest or weed control at 125 µg/mL in experiment [1] and in experiment [2] was 60 to 100% throughout. Further, the pest or weed control at 125 ppm in experiment [3] is 0 to 60%.

Consider `COc1nc(C#CCCNc2ncnc3sccc23)cs1` [compound 67], for which the pest or weed control at 125 µg/mL in experiment [1] and in experiment [2] was 60 to 100% in each case. Further, in experiment [3], the pest or weed control at 125 ppm fell in the range of 60 to 100%.

With `COCc1ccccc1C#CCCNc1ncnc2cccc(F)c12` [compound 318], the pest or weed control at 125 µg/mL in experiment [1] and in experiment [2] was 60 to 100% each time. Besides, in experiment [3], the pest or weed control at 125 ppm lay in the range of 60 to 100%.

Consider `COCc1ccccc1C#CCCNc1ncnc2ccc(-c3cccc(F)c3)cc12` [compound 335], for which the pest or weed control at 125 µg/mL is 60 to 100% in experiment [1] and 0 to 60% in experiment [2]. Moreover, the pest or weed control at 125 ppm in experiment [3] was in the range of 0 to 60%.

With `C(#Cc1cscn1)CCNc1ncnc2ccccc12` [compound 210], the pest or weed control at 125 µg/mL in experiment [1] and in experiment [2] was 60 to 100% each time. Further, the pest or weed control at 125 ppm in experiment [3] lay in the range of 60 to 100%.

With `COCc1ccccc1C#CCCNc1ncnc2ncccc12` [compound 380], the pest or weed control at 125 µg/mL in experiment [1] and in experiment [2] was 60 to 100% in each case. In addition, in experiment [3], the pest or weed control at 125 ppm lay within 60 to 100%.

For `OCc1ccccc1C#CCCNc1ncnc2ccccc12` [compound 130], the pest or weed control at 125 µg/mL in experiment [1] and in experiment [2] was 60 to 100% in each case. Also, the pest or weed control at 125 ppm in experiment [3] is 60 to 100%.

Take `CC(CC#Cc1ccc(Cl)cc1C(F)(F)F)Nc1ncnc2cccc(F)c12` (stereo not drawn) [compound 346]: the pest or weed control at 125 µg/mL in experiment [1] and in experiment [2] was 60 to 100% each time. The pest or weed control at 125 ppm in experiment [3] was in the range of 0 to 60%.

For `Fc1ccc(C#CCCNc2ncnc3ccccc23)cn1` [compound 194], the pest or weed control at 125 µg/mL in experiment [1] and in experiment [2] was 60 to 100% each time. In experiment [3], the pest or weed control at 125 ppm fell in the range of 0 to 60%.

For `COc1ccccc1C#CCC(C)Nc1ncnc2sccc12` (stereo not drawn) [compound 236], the pest or weed control at 125 µg/mL in experiment [1] and in experiment [2] was 60 to 100% throughout. Moreover, in experiment [3], the pest or weed control at 125 ppm was 0 to 60%.

For the compound `C(#Cc1ncccn1)CCNc1ncnc2sccc12` [compound 58], the pest or weed control at 125 µg/mL in experiment [1] lay in the range of 60 to 100%; in experiment [2], 0 to 60%. Besides, the pest or weed control at 125 ppm in experiment [3] lay within 60 to 100%.

With `Clc1ccccc1C#CCCNc1ncnc2sccc12` [compound 14], the pest or weed control at 125 µg/mL in experiment [1] and in experiment [2] was 60 to 100% in each case. Also, the pest or weed control at 125 ppm in experiment [3] is 0 to 60%.

With `C(#CCc1ccccc1)CCNc1ncnc2sccc12` [compound 9], the pest or weed control at 125 µg/mL in experiment [1] and in experiment [2] was 60 to 100% each time. The pest or weed control at 125 ppm in experiment [3] lay in the range of 0 to 60%.

Take `COc1ccc(C#CCCNc2ncnc3sccc23)cc1` [compound 23]: the pest or weed control at 125 µg/mL in experiment [1] and in experiment [2] was 60 to 100% in each case. Further, the pest or weed control at 125 ppm in experiment [3] was 60 to 100%.

Take `C(#Cc1csc(Oc2ccccc2)n1)CCNc1ncnc2ccccc12` [compound 227]: the pest or weed control at 125 µg/mL in experiment [1] and in experiment [2] was 60 to 100% in each case. The pest or weed control at 125 ppm in experiment [3] lay within 60 to 100%.
